Reference: ChEMBL document CHEMBL3352100, “Visible light-induced nitric oxide release from a novel nitrobenzene derivative cross-conjugated with a coumarin fluorophore” (Bioorg Med Chem Lett, 2014)
Active and inactive are the calls of the source. No cut-off for these calls is given here.

Tests used:
[1] = Induction of nitric oxide release in potassium phosphate buffer at pH 7.35 at 100 uM photoirradiated with 180 mW/cm'2 light for 15 mins by LC/ESI-MS analysis in presence of Fe2+/MGD2 complex; format: physicochemical; conditions: pH 7.35, 0.25 h
[2] = tested on: HCT-116; assay: Induction of nitric oxide release in human HCT116 cells at 25 uM incubated for 3 hrs followed by […] irradiation by DAR-4M/AM staining-based fluorescence microscopy relative to control; format: functional, cell-based
[3] = Cellular uptake in human HCT116 cell cytoplasm at 100 uM by confocal fluorescence microscopy; format: ADME, cell-based; conditions: hct-116, 100 µM
[4] = Induction of nitric oxide release in potassium phosphate buffer at pH 7.35 at 100 uM photoirradiated with 15 mW/cm'2 light for 10 mins by spectrometric analysis in presence of Fe2+/MGD2 complex; format: physicochemical; conditions: pH 7.35, 10 min
[5] = Induction of nitric oxide release in potassium phosphate buffer at pH 7.35 at 500 uM photoirradiated with 190 mW/cm'2 light for 15 mins by LC/ESI-MS analysis in presence of Fe2+/MGD2 complex; format: physicochemical; conditions: pH 7.35, 0.25 h

Row | Activity [1] | Drug uptake [3] | Activity [4] | Activity [5] | SMILES | Activity [2]
1 | Not Active |  |  |  | CCN(CC)c1ccc2c(C)c(/C=C/c3cc(C)c([N+](=O)[O-])c(C)c3)c(=O)oc2c1 | 
2 |  | Active | Active | Active | Cc1cc(/C=C/c2cc(=O)oc3cc(O)c(Br)cc23)cc(C)c1[N+](=O)[O-] | Active
